Experimental data as given in EP4061322B1 (Institut des Sciences et Industries du Vivant et de …, priority 2019, dated 2021).
Like-named read-outs stand apart in the source and are kept apart here. Blank lines part the entries; values can stand above or below the molecule they belong to.

Tests used:
[1] = Photostability under UV exposure; format: physicochemical; conditions: for A (t=0 min): absorbance before UV exposure
Excerpt: La stabilité des composés 1 à 7 aux UV a été étudiée par soumission à une exposition (λ : 300 nm, P : 8.32 W/m^2) pendant une heure.
L'Avobenzone a été utilisée comme molécule de référence. Cette molécule est connue pour être […] sous exposition UV, ce qui n'est pas du tout le cas d'autres composés bio-sourcés.
La photostabilité des composés 8 à 11 a également été étudiée, de manière identique au test appliqué aux composés 1 à 7. Les résultats obtenus sont présentés dans le Tableau 2. […] Cette méthodologie a été appliquée à l'ensemble des molécules décrites ci-dessus. Tableau 2 : Stabilité des composés 8 à 11 soumis à une exposition aux UV.

[2] = UV-Vis absorption spectrum (anti-UVA and blue light properties); format: physicochemical; set-up: λmax: unit not given here
Excerpt: Un spectre UV-Vis a été réalisé dans l'éthanol à 10^-5 mol/L pour les composés 1 à 7, qui sont des dérivés furaniques de l'acide de Medrum. L'Avobenzone, une molécule très largement utilisée comme filtre UVA dans les crèmes solaires, a été utilisée en tant que référence.
Cette méthodologie a été employée pour évaluer les propriétés anti-UV des composés 8 à 11, qui sont des dérivés phénoliques de l'acide de Medrum, des composés 12 à 15 qui sont des dérivés pyrroliques de l'acide de Meldrum, des composés 16 à 18 qui sont des dérivés vinylphénol de l'acide de Meldrum, le composé 19 qui est un dérivé vinylfurane de l'acide de Meldrum.

[3] = Antioxidant properties (IC50 compared with BHA and BHT); format: biochemical
Excerpt: Les propriétés anti-oxydantes des composés 8 à 11 ont été évaluées par comparaison de leur IC50 avec celles de deux molécules de référence que sont la BHA et le BHT. Ces deux molécules sont très largement utilisées dans les formulations cosmétiques bien qu'elles soient controversées pour leur effet potentiellement cancérigène.

[4] = Tableau 2, same test as for compounds 1 to 7 (λ 300 nm, P 8.32 W/m^2, one hour)
[5] = Tableau 1, UV exposure λ 300 nm, P 8.32 W/m^2, one hour
[6] = read-out: IC50 (nmol); antioxidant properties

Compound: COc1cc(C=C2C(=O)OC(C)(C)OC2=O)cc(OC)c1O
A (t=0 min) ([1]; Tableau 2): 0,24614 | Perte d'activité (%) [1, 4]: 11,43% | λmax ([2]; Tableau 2): 405 | IC50 ([3]; antioxidant properties; read-out: IC50 (nmol)): 3.58 nM | capacité antioxydante ([3]; result in words): remarquables

Perte d'activité (%) [1, 5]: 0,6% | A (t=0 min) ([1]; Tableau 1): 0,36735 | λmax ([2]; Tableau 1): 350
Compound: COc1ccc(C(=O)CC(=O)c2ccc(C(C)(C)C)cc2)cc1 [Avobenzone, reference compound]

Compound: COc1ccc(O)c(C(C)(C)C)c1 [BHA, reference compound]
IC50 [3, 6]: 6.51 nmol

IC50 [3, 6]: 13.1 nmol
Compound: Cc1cc(C(C)(C)C)c(O)c(C(C)(C)C)c1 [BHT, reference compound]

A (t=0 min) ([1]; Tableau 2): 0,26515 | Perte d'activité (%) [1, 4]: 6,37% | λmax ([2]; Tableau 2): 398 | IC50 [3, 6]: 2.9 nmol
Compound: CC1(C)OC(=O)C(=Cc2ccc(O)c(O)c2)C(=O)O1 [Composé 9]
capacité antioxydante ([3]; result in words): remarquables

A (t=0 min) ([1]; Tableau 2): 0,29431 | Perte d'activité (%) [1, 4]: 3,47% | λmax ([2]; Tableau 2): 374 | IC50 (nmol) ([3]; antioxidant properties): Pas d'effet
Compound: CC1(C)OC(=O)C(=Cc2ccc(O)cc2)C(=O)O1 [Composé 10, 5-(4-Hydroxybenzylidene)-2,2-dimethyl-1,3-dioxane-4,6-dione]

Perte d'activité (%) [1, 5]: < 5% | Perte d'activité (%) ([1]; Tableau 1, UV exposure λ 300 nm, P 8.32 W/m^2, one hour, listed as Composé (2)): 4,2% | A (t=0 min) ([1]; Tableau 1): 0,37961 | λmax ([2]; Tableau 1): 400
Compound: Cc1cc(C=C2C(=O)OC(C)(C)OC2=O)oc1C [compound 2, 5-[(4,5-Dimethyl-2-furanyl)methylene]-2,2-dimethyl-1,3-dioxane-4,6-dione]

Perte d'activité (%) [1, 5]: < 5% | Perte d'activité (%) ([1]; Tableau 1, UV exposure λ 300 nm, P 8.32 W/m^2, one hour, listed as Composé (3)): 5,1% | A (t=0 min) ([1]; Tableau 1): 0,31307 | λmax ([2]; Tableau 1): 374
Compound: CCc1ccc(C=C2C(=O)OC(C)(C)OC2=O)o1 [compound 3, 5-[(5-Ethyl-2-furanyl)methylene]-2,2-dimethyl-1,3-dioxane-4,6-dione]

Perte d'activité (%) [1, 5]: 28,7% | A (t=0 min) ([1]; Tableau 1): 0,32310 | λmax ([2]; Tableau 1): 386
Compound: CC1(C)OC(=O)C(=Cc2cc3ccccc3o2)C(=O)O1 [compound 5, 5-(2-benzofuranylmethylene)-2,2-dimethyl-1,3-dioxane-4,6-dione]

Perte d'activité (%) [1, 5]: 12,0% | A (t=0 min) ([1]; Tableau 1): 0,28728 | λmax ([2]; Tableau 1): 366
Compound: CC(=O)OCc1ccc(C=C2C(=O)OC(C)(C)OC2=O)o1 [compound 6, 5-[[5-((Acetyloxy)methyl)-2-furanyl]methylene]-2,2-dimethyl-1,3-dioxane-4,6-dione]

Perte d'activité (%) [1, 5]: 12,4% | A (t=0 min) ([1]; Tableau 1): 0,47642 | λmax ([2]; Tableau 1): 406 - 426
Compound: CC1(C)OC(=O)C(=Cc2ccc(C=C3C(=O)OC(C)(C)OC3=O)o2)C(=O)O1 [compound 7, 5,5'-(2,5-furandiyldimethylidyne)bis-2,2-dimethyl-1,3-dioxane-4,6-dione]

Compound: CC1(C)OC(=O)C(=CC=Cc2ccco2)C(=O)O1 [compound 19, 5-[3-(2-furanyl)-2-propen-1-ylidene]-2,2-dimethyl-1,3-Dioxane-4,6-dione]
absorption UVA et lumière bleue (spectre UV-Vis) ([2]; in ethanol at 10^-5 mol/L, Figure 2): comparables à ceux obtenus avec les composés 1 à 7
